Laboratory results published in patent US20240002379A1, “ASYMMETRIC CONJUGATE COMPOUNDS” (Pheon Therapeutics Ltd., priority 2016, published 2024).
“Also recorded” adds a separate entry of the source. Read-outs that look alike come from different tables or passages of the source.

How the values were obtained:
SW48 cell line = test: MTT cytotoxicity assay, SW48; assay type: cell-based; conditions: MTT assay, 72 hour incubation
Method: (§1) Tumor cell lines were maintained in RPMI1640 medium supplemented with 10% heat-inactivated fetal bovine serum, 2 mM L-glutamine and 1 mM sodium pyruvate. 1800 cells per well were seeded in a volume of 180 μl in a 96-well flat bottom polystyrene plate. The cells were allowed to adhere overnight at 37° C. in a CO2 incubator. Ligands were initially formulated in DMSO, and stocks stored at −80° C. They were then further formulated at lox concentration in RPMI1640 medium. 20 ul of diluted samples were added into each treatment well. On each plate, blank wells with no cells, and untreated wells containing cells, were included. Plates were then cultured at 37° C. in a CO2 incubator for 72 hrs. Cytotoxicity was evaluated using a tetrazolium salt-based assay, the MTT assay. After 72 hours, the supernatant was removed from each well and 200 μl of a sterile filtered 500 μg/ml MTT solution in water added to each well. The plates were then incubated at 37° C. in a CO2 incubator for 4 hrs. The supernatant was then removed and the formazan crystals formed solubilized by adding 150 μl of DMSO to each well. The plate was then read on a plate reader at 540 nm, and percentage cell survival calculated as follows: ((mean absorbance treated wells at concentration x−mean absorbance blank wells)[…](mean absorbance untreated wells at concentration x−mean absorbance blank wells))×100. Data were plotted as concentration in nM vs. % cell survival in Microsoft Excel, and IC50 values (concentration where cell survival is reduced by a half) were determined from the graph.

SW620 cell line = test: MTT cytotoxicity assay, SW620; assay type: cell-based; conditions: MTT assay, 72 hour incubation
Method: as §1

LIM1215 cell line = test: MTT cytotoxicity assay, LIM1215; assay type: cell-based; conditions: MTT assay, 72 hour incubation
Method: as §1

[1] = system: FaDu (head and neck cancer) cell line; test: MTT cytotoxicity assay, FaDu; assay type: cell-based; conditions: Homo sapiens, 72 h, read-out: IC50 value in FaDu (prodrug form)
Method: as §1

[2] = system: three fluorescently labelled DNA sequences shown in FIG. 17; test: FRET DNA melting, the three DNA sequences shown in FIG. 17 together; assay type: binding; conditions: different concentrations, all three sequences, vs control DNA
Description: Further FRET DNA melting studies were undertaken on a number of molecules using three fluorescently labelled sequences. The sequences (FIG. 17) were designed to provide additional evidence that the series can form inter- and intrastrand cross-links. Inosines were inserted in place of traditional DNA bases in some cases to limit the number of binding sites available for the compounds to interact with. The short duplexes used in this FRET study are relatively unstable in the duplex form with a melting temperature below 30° C. so that, in the absence of ligand, a large part of the melting occurs below the starting temperature of the experiment. […] Increasing concentrations of 13 cause a greater amount of the melting transition to appear at the higher temperature (i.e. a greater number of the DNA molecules are cross-linked). A greater effect for 5′-AIIAGAITTTI′-3′ can be observed at lower concentrations of 13.
Oligonucleotides were obtained from ATDbio (Southampton, UK) in lyophilised form. They were labelled with a fluorophore molecule (F=fluorescein) at the 5′-end and a quencher molecule (Q=dabcyl) at the 3′-end of the complementary strand. Each oligonucleotide was dissolved in distilled H2O to form stock solutions of 100 PM. Working solutions of 5 μM were prepared by diluting the stock solution with distilled H2O.
The following buffers were used: 250 mM phosphate buffer pH 7.4 (consisting of sodium dihydrogen phosphate and sodium phosphate diluted in distilled H2O) and 5 M sodium chloride buffer. A11 buffers and distilled H2O were filtered through a […] filter prior to use.
For the FRET experiments a stock solutions were prepared by dissolving compound (such as compound 13) in DMSO to give a concentration of 10 mM. From this stock solution, working solutions of the desired concentration were prepared by diluting the stock solution with distilled H2O.
The reaction mixture was comprised of 4 μL of 250 mM phosphate buffer (final concentration of 50 mM), 4 μL flourophor and 4 μL quencher molecule of the appropriate oligonucleotide for a final concentration of 0.2 PM, 4 μL 5 M sodium chloride (final concentration of 1 M NaCl), and 4 μL of distilled H2O. This mixture was heated in an Eppendorf tube at 90° C. for 1 min and slowly cooled down to room temperature. This process was carried out to anneal the single strands to double-stranded DNA. Following this, 4 μL of the ligand was added in the desired concentration and the mixture incubated overnight either at room temperature or 4° C. A control sample of DNA only was prepared by mixing 4 μL 250 mM phosphate buffer (final concentration of 50 mM) with 4 μL fluorophore-labelled and 4 μL quencher-labelled oligonucleotides (of the appropriate sequence) to give a final concentration of 0.2 PM, 4 μL 5 M sodium chloride (final concentration of 1 M NaCl) and 4 μL distilled H2O. This mixture was analysed without prior annealing.
Fluorescence melting profiles were measured using a Roche LightCycler using a total reaction volume of 20 μL. Initially, the samples were denatured by heating to 95° C. at a rate of 1° C. min^−1. The samples were then maintained at 95° C. for 5 min before annealing by cooling to 25° C. at 1° C. min^−1. The samples were then held at 25° C. for a further 5 min and finally melted by heating to 95° C. at 1° C. min^−1. Annealing steps and melting steps were all recorded and changes in fluorescence were measured at 520 nm.
Tm values were obtained from the first derivates of the melting profiles using the Roche LightCycler software.

[3] = system: linear double-stranded HexARev DNA fragment; test: DNA cleavage assay, HexARev fragment; assay type: biochemical; conditions: ligand concentration 10 μM and 100 nM (FIG. 16)
Method: The ability of a further series of compounds 13, 42, 59, 99 and the PBD dimer Talirine to cross-link DNA was determined using an assay involving a linear double-stranded HexARev fragment (FIG. 15).
The ability of 13 and of a series of compounds to cleave double-stranded DNA was investigated using a modification of the previously established DNA footprinting assay (34). Following an overnight incubation of the ligand-DNA complexes, the mixture was mixed with strand separation buffer containing 10 mM EDTA, 10 mM NaOH, 0.1% bromophenol blue, 80% formamide and incubated at 100° C. for 3 min. The mixture was then immediately cooled on ice and run on an 8% denaturing gel. […] Using the GA marker, these additional bands were identified as cleavage products produced by 13 at certain A sites of the DNA fragment.
The preparation of the TyrT DNA fragment (FIG. 8) and HexARev DNA fragment (FIG. 15) have been previously described (34). Briefly, the sequence which had been cloned into the BamHI site of pUC18 was obtained by cutting with HindIII and EcoRI. Radiolabelled DNA fragments were prepared by filling in the 3′-end of the HindIII site with [α-^32P]dATP using Klenow DNA polymerase (exo-).
The radiolabelled DNA fragment was separated from the remainder of the plasmid DNA on a 6% non-denaturing polyacrylamide gel. The gel (20 cm long, 0.3 mm thick) was run at 400 V in 1×TBE running buffer for about 1-2 h, until the bromophenol blue had run most of the way down the gel. The glass plates were separated and the position of the labelled DNA fragment was established by short (1 min) exposure to an X-ray film. The relevant band was then cut from the gel and the radiolabelled DNA eluted by adding 300 μL 10 mM Tris-HCl, pH 7.5 containing 0.1 mM EDTA and gently agitating overnight at room temperature. The eluted DNA was finally precipitated with ethanol and re-suspended in a suitable volume of 10 mM Tris-HCl, pH 7.5 containing 0.1 mM EDTA buffer so as to give at least 10 counts per second/μL on a hand-held Geiger counter. With fresh plasmid and α-^32P-dATP this process typically generated about 150 μL of radiolabelled fragment DNA. The absolute concentration of the DNA is not important, and it is typically lower than 10 nM.
Compounds such as 13 were synthesised as described above and the PBD dimer Talirine was obtained from Aurum Pharmatech LLC. Stock solution was prepared by dissolving the ligands in DMSO to give a concentration of 10 mM. From this stock solution, working solutions of the desired concentration were prepared by diluting with 10 mM Tris-HCl, pH 7.5 containing 10 mM NaCl.
Radiolabelled DNA (1.5 μL) was mixed with 1.5 μL ligand solution of various concentrations (10 μM-10 nM) and incubated overnight at 37° C.
Labelled DNA (1.5 μL) was mixed with 20 μL sterile water and 5 μL of denaturing loading solution (80% formamide containing 10 mM EDTA, 10 mM NaOH, 0.01% bromophenol blue). The sample was then incubated at 100° C. for 20 min with the micro-centrifuge tube cap open to allow evaporation.
Loading solution (4.5 μL) was added to samples from Section 2.1. The digestion products were boiled for 3 min at 100° C. and quickly cooled on ice prior to electrophoresis. Separation was performed on an 8% denaturing polyacrylamide gel (40 cm long, 0.3 mm thick) at 1500V for about 2 h until the dye reached the bottom of the gel. […]

PC3 (prostate) cell line = test: MTT cytotoxicity assay, PC3; assay type: cell-based; conditions: 72 h, read-out: Cytotoxicity PC3 (nM, 72 hour)
Method: as §1

[4] = system: LIM1215 cell line (gastric); test: MTT cytotoxicity assay, LIM1215; assay type: cell-based; conditions: read-out: Cytotoxicity LIM1215 (72 hours)
Method: as §1

SW48 cell line (gastric) = test: MTT cytotoxicity assay, SW48; assay type: cell-based; conditions: Homo sapiens, SW48; MTT assay, 72 hour incubation; read-out: Cytotoxicity SW48 (72 hrs)
Method: as §1

[5] = system: SW620 cell line (gastric); test: MTT cytotoxicity assay, SW620; assay type: cell-based; conditions: Homo sapiens, SW-620; MTT assay, 72 hour incubation; read-out: Cytotoxicity SW620 (72 hours)
Method: as §1

`COc1cc2c(cc1OCc1cccc(CC(=O)N3C[C@@H](C)c4c3cc(O)c3ccccc43)c1)NC(=O)[C@@H]1CCCCN1C2=O` [Compound 143, (S)-3-((3-(2-((S)-5-Hydroxy-1-methyl-1,2-dihydro-3H-benzo[e]indol-3-yl)-2-oxoethyl)benzyl)oxy)-2-methoxy-7,8,9,10-tetrahydrobenzo[e]pyrido[1,2-a][1,4]diazepine-6,12(5H,6aH)-dione] was tested, and the “Cytotoxicity SW48 (72 hrs)” value (SW48 cell line) was “Not active”, the “Cytotoxicity SW620 (72 hours)” value (SW620 cell line) was “Not active” and the “Cytotoxicity LIM1215 (72 hours)” value (LIM1215 cell line) was “Not active”.

For `COc1cc2c(cc1OCc1cccc(CC(=O)N3C[C@@H](CCl)c4c3cc(OC(=O)N3CCN(C)CC3)c3ccccc43)c1)N=C[C@@H]1CCCCN1C2=O` [Compound 59, (S)-1-(Chloromethyl)-3-(2-(3-((((S)-2-methoxy-12-oxo-6a,7,8,9,10,12-hexahydrobenzo[e]pyrido[1,2-a][1,4]diazepin-3-yl)oxy)-methyl)phenyl)acetyl)-2,3-dihydro-1H-benzo[e]indol-5-yl 4-methyl-piperazine-1-carboxylate], the IC50 [1] was 4.5 µM, the “effect on melting temperature / DNA stabilisation” value [2] was “does not impact on the stabilisation temperature of the parent DNA; also recorded: does not increase in proportion to the concentration” and the “cleavage of HexARev DNA fragment” value [3] was “limited cleavage”. For the same molecule, the IC50 (PC3 (prostate) cell line) was 900 nM.

`COc1cc2c(cc1OCc1cccc(CC(=O)N3C[C@@H](CCl)c4c3cc(OC(=O)N3CCN(C)CC3)c3ccccc43)c1)NC(=O)[C@@H]1CCCCN1C2=O` [Compound 140] was tested, and the “Cytotoxicity SW48 (72 hrs)” value (SW48 cell line) was “Not active”, the “Cytotoxicity SW620 (72 hours)” value (SW620 cell line) was “Not active” and the IC50 ([4]; LIM1215, 72 h) was 18.1 nM.

For `O=C(O)c1cc(OCc2ccccc2)c2ccccc2c1` [Compound 77, 4-(Benzyloxy)-2-naphthoic acid], the “cleavage of HexARev DNA fragment” value [3] was “distinct cleavage patterns”.

For `COc1cc2c(cc1OCCCCCC(=O)N1C[C@@H](CCl)c3c1cc(O)c1ccccc31)N=C[C@@H]1CCCCN1C2=O` [Compound 99, (S)-3-((6-((S)-1-(Chloromethyl)-5-hydroxy-1,2-dihydro-3H-benzo[e]indol-3-Y1)-6-oxohexyl)oxyl)-2-methoxy-7,8,9,10-tetrahydrobenzo-[e]pyrido[1,2-a][1,4]diazepin-12(6aH)-one], the “cleavage of HexARev DNA fragment” value [3] was “cleave DNA”, the IC50 (SW48 cell line (gastric)) was 0.035 nM and the IC50 [5] was 0.045 nM. It also gave an IC50 ([4]; LIM1215, MTT assay, 72 hour incubation) of 0.039 nM.
